Molecular target: HDAC6 (Homo sapiens (Human), UniProt Q9UBN7)
Test: HDAC6 TR-FRET displacement assay
Type: binding
Conditions: displacement of fluorescein labeled tracer from HDAC6; 2 nM HDAC6, 1 nM tracer, 0.5 nM Tb-anti-GST antibody; 30 min pre-incubation, 6 hours at 25° C.
Source text: HDAC6 and Tb-anti-GST antibody were purchased from Signal Chem (cat #PC124) and Cisbio (cat #61GSTTAH), respectively. HEPES, pH 7.5 was purchased from Teknova (Cat #H1575). All other buffer components, NaCl (cat #S5150), KCl (cat #60121), Triton X-100 (cat #T9284), GSH (cat #G4251), BGG (cat #G5009), and BSA (cat #A2153) were purchased from SIGMA.
Displacement of fluorescein labeled tracer 2-(6-hydroxy-3-oxo-3H-xanthen-9-yl)-5-({[5-(4-{[7-(hydroxycarbamoyl)-2H,3H,4H,5H-thieno[2,3-f][1,4]oxazepine-4-carbonyl]amino}phenoxy)pentyl]carbamothioyl}amino)benzoic acid from HDAC6 was measured in vitro using a TR-FRET assay. The assays were performed in 1536-well plates in a total volume of 6 μL in assay buffer consisting of 50 mM HEPES pH 7.5, 50 mM NaCl, 50 mM KCl, 0.01% Triton X-100, 0.5 mM GSH, 0.03% BGG, 0.01% BSA.
For concentration response curves (IC50 determination), Compounds were serially diluted 3-fold from 2 mM highest concentration to generate a 10-point concentration gradient. To perform the assay, 30 nL of compound gradient solutions were transferred to the assay plate using the ECHO acoustic dispenser to achieve a final concentration range of 10 μM to 0.000508 uM in 6 μL reaction. 3 μL of HDAC6 in assay buffer were added to the assay plates and pre-incubate at room temp. for 30 mins. After pre-incubation, 3 μL of the tracer and TB-anti-GST antibody mix were added to the assay plates. The final concentrations of HDAC6, tracer, and TB-anti-GST antibody for each assay are 2 nM, 1 nM, and 0.5 nM, respectively. Binding reactions were equilibrated at 25° C. for an additional 6 hours, then read in endpoint mode on the BMG PheraStar (BMG labtech) equipped with a 337-520-490 optical module. The ratio of the 520/490 nm emission was calculated to determine the relative amounts of HDAC6 and tracer complex residue in each well.
The percent inhibition of HDAC6 (IC50) was calculated according to the following equation.
As set forth in Table 1, “A” indicates an HDAC6 IC50 value of less than 200 nM; “B” indicates an HDAC6 IC50 value of greater than or equal to 200 nM and less than 500 nM; and “C” indicates an HDAC6 IC50 value of greater than or equal to 500 nM and less than 5 μM.

HDAC6, sequence (Q9UBN7 whole entry): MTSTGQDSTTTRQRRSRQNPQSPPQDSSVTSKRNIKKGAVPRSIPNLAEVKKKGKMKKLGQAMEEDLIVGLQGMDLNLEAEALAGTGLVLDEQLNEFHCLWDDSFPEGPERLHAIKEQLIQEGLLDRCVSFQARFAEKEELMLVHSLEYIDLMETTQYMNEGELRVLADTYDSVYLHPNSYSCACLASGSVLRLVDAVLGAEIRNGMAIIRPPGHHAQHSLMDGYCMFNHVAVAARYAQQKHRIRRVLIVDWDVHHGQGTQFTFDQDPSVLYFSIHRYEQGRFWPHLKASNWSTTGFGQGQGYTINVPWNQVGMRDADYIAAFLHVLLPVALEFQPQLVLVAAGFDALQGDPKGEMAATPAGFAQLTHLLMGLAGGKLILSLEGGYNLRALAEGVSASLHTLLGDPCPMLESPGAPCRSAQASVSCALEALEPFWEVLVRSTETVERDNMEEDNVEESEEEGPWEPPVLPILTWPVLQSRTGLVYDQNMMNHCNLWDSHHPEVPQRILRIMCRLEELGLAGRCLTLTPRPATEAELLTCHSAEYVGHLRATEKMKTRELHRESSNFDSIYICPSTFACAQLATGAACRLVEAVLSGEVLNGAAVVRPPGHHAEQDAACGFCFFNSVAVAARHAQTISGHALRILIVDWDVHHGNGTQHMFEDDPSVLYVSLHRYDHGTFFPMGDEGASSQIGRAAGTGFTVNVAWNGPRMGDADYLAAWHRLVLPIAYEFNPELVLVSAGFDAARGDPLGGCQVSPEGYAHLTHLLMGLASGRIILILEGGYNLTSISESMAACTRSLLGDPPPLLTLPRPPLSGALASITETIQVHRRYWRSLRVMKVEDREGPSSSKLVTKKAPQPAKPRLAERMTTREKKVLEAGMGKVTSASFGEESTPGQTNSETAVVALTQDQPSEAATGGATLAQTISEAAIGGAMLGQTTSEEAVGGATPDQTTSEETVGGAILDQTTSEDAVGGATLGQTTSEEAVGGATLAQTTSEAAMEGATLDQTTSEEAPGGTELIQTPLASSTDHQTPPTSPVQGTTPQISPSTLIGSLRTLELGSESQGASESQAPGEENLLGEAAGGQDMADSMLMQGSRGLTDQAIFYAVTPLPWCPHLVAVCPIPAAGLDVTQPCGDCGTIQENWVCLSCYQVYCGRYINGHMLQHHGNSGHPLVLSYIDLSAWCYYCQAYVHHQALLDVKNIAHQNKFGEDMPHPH

SMILES | IC50 [nM]
CC1(C(=O)N2Cc3ccc(-c4noc(C(F)(F)F)n4)cc3OC[C@@H]2c2ccccc2)CCCOC1 (single isomer, unassigned) [Compound 13] | < 200
CC1(C(=O)N2Cc3ccc(-c4noc(C(F)(F)F)n4)cc3OC[C@@H]2c2ccccc2)CCCOC1 (single isomer, unassigned) [Compound 14] | 500 to 5000
C[C@H]1COc2cc(-c3noc(C(F)(F)F)n3)cc(F)c2CN1C(=O)C1(C)COC1 [Compound 1, (S)-(6-fluoro-3-methyl-8-(5-(trifluoromethyl)-1,2,4-oxadiazol-3-yl)-2,3-dihydrobenzo[f][1,4]oxazepin-4(5H)-yl)(3-methyloxetan-3-yl)methanone] | < 200
CC1(C(=O)N2Cc3ccc(-c4nnc(C(F)F)o4)cc3OC[C@@H]2c2ccccc2)CCOCC1 [Compound 3, (S)-(8-(5-(difluoromethyl)-1,3,4-oxadiazol-2-yl)-3-phenyl-2,3-dihydrobenzo[f][1,4]oxazepin-4(5H)-yl)(4-methyltetrahydro-2H-pyran-4-yl)methanone] | < 200
CC1(C(=O)N2Cc3ccc(-c4noc(C(F)(F)F)n4)cc3OC[C@@H]2c2ccccc2)CCOCC1 [Compound 4, (S)-(4-methyltetrahydro-2H-pyran-4-yl)(3-phenyl-8-(5-(trifluoromethyl)-1,2,4-oxadiazol-3-yl)-2,3-dihydrobenzo[f][1,4]oxazepin-4(5H)-yl)methanone] | < 200
CC1(C(=O)N2Cc3ccc(-c4noc(C(F)(F)F)n4)cc3OC[C@@H]2c2ccccc2)COC1 [Compound 5, (3S)-4-[(3-methyloxetan-3-yl)carbonyl]-3-phenyl-8-[5-(trifluoromethyl)-1,2,4-oxadiazol-3-yl]-3,5-dihydro-2H-1,4-benzoxazepine] | < 200
O=C(N1Cc2ccc(-c3noc(C(F)(F)F)n3)cc2OC[C@@H]1c1ccccc1)C(F)(F)F [Compound 6, (S)-2,2,2-trifluoro-1-(3-phenyl-8-(5-(trifluoromethyl)-1,2,4-oxadiazol-3-yl)-2,3-dihydrobenzo[f][1,4]oxazepin-4(5H)-yl)ethan-1-one] | 500 to 5000
COCC1(C(=O)N2Cc3ccc(-c4noc(C(F)(F)F)n4)cc3OC[C@@H]2c2ccccc2)COC1 [Compound 7, (3S)-4-{[3-(methoxymethyl)oxetan-3-yl]carbonyl}-3-phenyl-8-[5-(trifluoromethyl)-1,2,4-oxadiazol-3-yl]-3,5-dihydro-2H-1,4-benzoxazepine] | < 200
CC(C)(C)OC(=O)N1Cc2ccc(-c3noc(C(F)(F)F)n3)cc2OC[C@@H]1c1ccccc1 [Compound 8, tert-butyl (S)-3-phenyl-8-(5-(trifluoromethyl)-1,2,4-oxadiazol-3-yl)-2,3-dihydrobenzo[f][1,4]oxazepine-4(5H)-carboxylate] | 500 to 5000
CC(C)(C)C(=O)N1Cc2c(F)cc(-c3noc(C(F)(F)F)n3)cc2OC[C@@H]1c1ccccc1 [Compound 15, (S)-1-(6-fluoro-3-phenyl-8-(5-(trifluoromethyl)-1,2,4-oxadiazol-3-yl)-2,3-dihydrobenzo[f][1,4]oxazepin-4(5H)-yl)-2,2-dimethylpropan-1-one] | 200 to 500
C[C@H]1COc2cc(-c3noc(C(F)(F)F)n3)ccc2CN1C(=O)C1(C)CCOCC1 [Compound 16, (3S)-3-methyl-4-[(4-methyloxan-4-yl)carbonyl]-8-[5-(trifluoromethyl)-1,2,4-oxadiazol-3-yl]-3,5-dihydro-2H-1,4-benzoxazepine] | < 200
C[C@H]1COc2cc(-c3noc(C(F)(F)F)n3)ccc2CN1C(=O)C(C)(C)C [Compound 17, 2,2-dimethyl-1-[(3S)-3-methyl-8-[5-(trifluoromethyl)-1,2,4-oxadiazol-3-yl]-3,5-dihydro-2H-1,4-benzoxazepin-4-yl]propan-1-one] | < 200
C[C@H]1COc2cc(-c3noc(C(F)(F)F)n3)cc(F)c2CN1C(=O)C1(C)CCOCC1 [Compound 18, (3S)-6-fluoro-3-methyl-4-[(4-methyloxan-4-yl)carbonyl]-8-[5-(trifluoromethyl)-1,2,4-oxadiazol-3-yl]-3,5-dihydro-2H-1,4-benzoxazepine] | < 200
C[C@H]1COc2cc(-c3noc(C(F)(F)F)n3)cc(F)c2CN1C(=O)C(C)(C)C [Compound 19, 1-[(3S)-6-fluoro-3-methyl-8-[5-(trifluoromethyl)-1,2,4-oxadiazol-3-yl]-3,5-dihydro-2H-1,4-benzoxazepin-4-yl]-2,2-dimethylpropan-1-one] | < 200
C[C@H]1COc2cc(-c3nnc(C(F)F)o3)ccc2CN1C(=O)C(C)(C)C [Compound 20, (S)-1-(8-(5-(difluoromethyl)-1,3,4-oxadiazol-2-yl)-3-methyl-2,3-dihydrobenzo[f][1,4]oxazepin-4(5H)-yl)-2,2-dimethylpropan-1-one] | < 200
CC(C)(C)C(=O)N1Cc2ccc(-c3nnc(C(F)F)o3)cc2OC[C@@H]1c1ccccc1 [Compound 22, (S)-1-(8-(5-(difluoromethyl)-1,3,4-oxadiazol-2-yl)-3-phenyl-2,3-dihydrobenzo[f][1,4]oxazepin-4(5H)-yl)-2,2-dimethylpropan-1-one] | < 200
CC(C)(C)C(=O)N1Cc2ccc(-c3noc(C(F)(F)F)n3)cc2OC[C@@H]1c1ccccc1 [Compound 23, 2,2-dimethyl-1-[(3S)-3-phenyl-8-[5-(trifluoromethyl)-1,2,4-oxadiazol-3-yl]-3,5-dihydro-2H-1,4-benzoxazepin-4-yl]propan-1-one] | 200 to 500
C[C@H]1COc2cc(-c3noc(C(F)(F)F)n3)cc(F)c2CN1C(=O)C(F)(F)F [Compound 24, (S)-2,2,2-trifluoro-1-(6-fluoro-3-methyl-8-(5-(trifluoromethyl)-1,2,4-oxadiazol-3-yl)-2,3-dihydrobenzo[f][1,4]oxazepin-4(5H)-yl)ethan-1-one] | < 200
CC(=O)N1Cc2c(F)cc(-c3noc(C(F)(F)F)n3)cc2OC[C@@H]1C [Compound 25, 1-[(3S)-6-fluoro-3-methyl-8-[5-(trifluoromethyl)-1,2,4-oxadiazol-3-yl]-3,5-dihydro-2H-1,4-benzoxazepin-4-yl]ethanone] | 200 to 500
COC[C@H]1COc2cc(-c3noc(C(F)(F)F)n3)ccc2CN1C(=O)C1(C)CCOCC1 [Compound 26, (3S)-3-(methoxymethyl)-4-[(4-methyloxan-4-yl)carbonyl]-8-[5-(trifluoromethyl)-1,2,4-oxadiazol-3-yl]-3,5-dihydro-2H-1,4-benzoxazepine] | < 200
COC[C@H]1COc2cc(-c3noc(C(F)(F)F)n3)ccc2CN1C(=O)C(C)(C)C [Compound 27, 1-[(3S)-3-(methoxymethyl)-8-[5-(trifluoromethyl)-1,2,4-oxadiazol-3-yl]-3,5-dihydro-2H-1,4-benzoxazepin-4-yl]-2,2-dimethylpropan-1-one] | < 200
CC1(C(=O)N2CCOc3cc(-c4noc(C(F)(F)F)n4)cc(F)c3C2)CCOCC1 [Compound 28, 6-fluoro-4-[(4-methyloxan-4-yl)carbonyl]-8-[5-(trifluoromethyl)-1,2,4-oxadiazol-3-yl]-3,5-dihydro-2H-1,4-benzoxazepine] | < 200
CC(C)(C)C(=O)N1CCOc2cc(-c3noc(C(F)(F)F)n3)cc(F)c2C1 [Compound 29, 1-{6-fluoro-8-[5-(trifluoromethyl)-1,2,4-oxadiazol-3-yl]-3,5-dihydro-2H-1,4-benzoxazepin-4-yl}-2,2-dimethylpropan-1-one] | < 200
COCC1(C(=O)N2Cc3c(F)cc(-c4noc(C(F)(F)F)n4)cc3OC[C@@H]2C)COC1 [Compound 30, (3S)-6-fluoro-4-{[3-(methoxymethyl)oxetan-3-yl]carbonyl}-3-methyl-8-[5-(trifluoromethyl)-1,2,4-oxadiazol-3-yl]-3,5-dihydro-2H-1,4-benzoxazepine] | < 200
COCC1(C(=O)N2Cc3c(F)cc(-c4noc(C(F)(F)F)n4)cc3OC[C@@H]2C)CC1 [Compound 31, (3S)-6-fluoro-4-{[1-(methoxymethyl)cyclopropyl]carbonyl}-3-methyl-8-[5-(trifluoromethyl)-1,2,4-oxadiazol-3-yl]-3,5-dihydro-2H-1,4-benzoxazepine] | 200 to 500
CC1(C(=O)N2Cc3ccc(-c4noc(C(F)(F)F)n4)cc3OC[C@@H]2C2CC2)CCOCC1 [Compound 32, (3S)-3-cyclopropyl-4-[(4-methyloxan-4-yl)carbonyl]-8-[5-(trifluoromethyl)-1,2,4-oxadiazol-3-yl]-3,5-dihydro-2H-1,4-benzoxazepine] | < 200

Reference: patent publication US20250263405A1, “HISTONE DEACETYLASE 6 INHIBITOR COMPOUNDS AND USES THEREOF” (VALO HEALTH, INC., priority 2021, published 2025)
